Key:
PI3 Kbeta (PI3 Kb) = molecular target: T1, PI3 Kbeta (PI3 Kb) (Homo sapiens, UniProt P42338); test: kinobeads assay, PI3Kbeta; type: binding; details: Further Kinobeads Data; read-out: PI3Kb
T1 construct: endogenous in cells; host or cells: cell lysate
Method in brief: (§1)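 Cell lysate aliquots are incubated with compound over a concentration range and with an affinity matrix of immobilized phenylmorpholin-chromen ligand. Beads are then removed, bound proteins eluted, and each kinase is quantified by multiplexed immunodetection to derive IC50 values.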

[1] = tested on: S6RP serine-240/244 phosphorylation; test: In vitro Phospho-S6 cellular assay (pS6RP S240/244) in HEK293T/17 cells; type: cell-based; details: Homo sapiens, 2 hours, read-out: pS6 IC50
Method in brief: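 Compounds were tested at eight concentrations on adhered HEK293T/17 cells for 2 h at 37 °C (2% FCS, 0.1% DMSO), at 80,000 cells/well for pAkt S473 and 40,000 for pS6RP S240/244. Lysates were captured on phospho-specific antibody MSD plates with Sulfo-Tag detection. Values came from nonlinear variable-slope regression.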

PI3Kalpha (PI3Ka) = molecular target: T2, PI3Kalpha (PI3Ka) (Homo sapiens, UniProt P42336); test: kinobeads assay, PI3Kalpha; type: binding; details: Further Kinobeads Data; for IC50: read-out: PI3Ka
T2 construct: endogenous in cells; host or cells: cell lysate
T2 sequence (P42336 whole entry): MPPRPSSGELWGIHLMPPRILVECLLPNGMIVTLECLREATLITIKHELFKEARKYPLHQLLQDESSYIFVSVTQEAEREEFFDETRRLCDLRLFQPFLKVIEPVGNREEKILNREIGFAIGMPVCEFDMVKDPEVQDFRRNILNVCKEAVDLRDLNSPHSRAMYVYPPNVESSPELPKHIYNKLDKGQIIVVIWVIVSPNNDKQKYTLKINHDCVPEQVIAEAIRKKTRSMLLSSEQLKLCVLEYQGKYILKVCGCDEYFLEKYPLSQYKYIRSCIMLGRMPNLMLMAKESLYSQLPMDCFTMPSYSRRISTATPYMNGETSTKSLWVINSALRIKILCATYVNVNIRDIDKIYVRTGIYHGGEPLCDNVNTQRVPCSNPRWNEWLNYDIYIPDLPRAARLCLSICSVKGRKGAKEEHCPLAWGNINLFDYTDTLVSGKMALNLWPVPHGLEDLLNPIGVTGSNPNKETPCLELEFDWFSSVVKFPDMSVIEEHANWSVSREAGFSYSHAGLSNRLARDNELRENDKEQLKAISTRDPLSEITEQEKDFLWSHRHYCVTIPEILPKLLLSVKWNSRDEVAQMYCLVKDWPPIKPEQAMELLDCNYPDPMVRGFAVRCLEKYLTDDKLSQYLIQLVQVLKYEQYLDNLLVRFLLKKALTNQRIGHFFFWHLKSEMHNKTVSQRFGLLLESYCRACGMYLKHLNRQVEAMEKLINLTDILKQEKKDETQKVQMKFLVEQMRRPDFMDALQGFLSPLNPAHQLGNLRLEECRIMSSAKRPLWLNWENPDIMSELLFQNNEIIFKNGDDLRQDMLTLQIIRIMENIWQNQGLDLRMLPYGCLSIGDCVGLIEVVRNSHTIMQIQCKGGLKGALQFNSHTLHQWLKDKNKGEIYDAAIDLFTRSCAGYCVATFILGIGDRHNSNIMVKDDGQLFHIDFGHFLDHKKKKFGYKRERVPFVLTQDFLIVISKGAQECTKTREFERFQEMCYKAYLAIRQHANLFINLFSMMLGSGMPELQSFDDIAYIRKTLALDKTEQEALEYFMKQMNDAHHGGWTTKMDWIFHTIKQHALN
T2 sequence (P27986 whole entry partner): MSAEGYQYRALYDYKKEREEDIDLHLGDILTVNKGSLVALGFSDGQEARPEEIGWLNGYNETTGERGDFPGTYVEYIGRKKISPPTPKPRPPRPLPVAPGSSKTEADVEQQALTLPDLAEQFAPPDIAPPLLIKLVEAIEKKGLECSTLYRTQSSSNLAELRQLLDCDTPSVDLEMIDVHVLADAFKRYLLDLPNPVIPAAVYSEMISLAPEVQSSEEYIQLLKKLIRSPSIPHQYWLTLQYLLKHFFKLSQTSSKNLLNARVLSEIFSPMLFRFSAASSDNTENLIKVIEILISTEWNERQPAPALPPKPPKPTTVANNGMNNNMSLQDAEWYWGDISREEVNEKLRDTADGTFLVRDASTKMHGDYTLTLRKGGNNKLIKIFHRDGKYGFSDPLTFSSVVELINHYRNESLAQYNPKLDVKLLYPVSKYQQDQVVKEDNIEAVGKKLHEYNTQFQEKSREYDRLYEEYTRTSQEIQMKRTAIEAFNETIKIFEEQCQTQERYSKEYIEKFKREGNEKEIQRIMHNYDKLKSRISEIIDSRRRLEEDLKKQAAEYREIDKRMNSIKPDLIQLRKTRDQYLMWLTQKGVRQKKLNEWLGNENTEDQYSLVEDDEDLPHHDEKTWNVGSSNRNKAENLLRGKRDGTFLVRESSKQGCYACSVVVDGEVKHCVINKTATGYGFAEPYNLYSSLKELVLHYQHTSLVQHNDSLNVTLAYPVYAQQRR
Method in brief: as §1

T1 sequence (P42338 whole entry): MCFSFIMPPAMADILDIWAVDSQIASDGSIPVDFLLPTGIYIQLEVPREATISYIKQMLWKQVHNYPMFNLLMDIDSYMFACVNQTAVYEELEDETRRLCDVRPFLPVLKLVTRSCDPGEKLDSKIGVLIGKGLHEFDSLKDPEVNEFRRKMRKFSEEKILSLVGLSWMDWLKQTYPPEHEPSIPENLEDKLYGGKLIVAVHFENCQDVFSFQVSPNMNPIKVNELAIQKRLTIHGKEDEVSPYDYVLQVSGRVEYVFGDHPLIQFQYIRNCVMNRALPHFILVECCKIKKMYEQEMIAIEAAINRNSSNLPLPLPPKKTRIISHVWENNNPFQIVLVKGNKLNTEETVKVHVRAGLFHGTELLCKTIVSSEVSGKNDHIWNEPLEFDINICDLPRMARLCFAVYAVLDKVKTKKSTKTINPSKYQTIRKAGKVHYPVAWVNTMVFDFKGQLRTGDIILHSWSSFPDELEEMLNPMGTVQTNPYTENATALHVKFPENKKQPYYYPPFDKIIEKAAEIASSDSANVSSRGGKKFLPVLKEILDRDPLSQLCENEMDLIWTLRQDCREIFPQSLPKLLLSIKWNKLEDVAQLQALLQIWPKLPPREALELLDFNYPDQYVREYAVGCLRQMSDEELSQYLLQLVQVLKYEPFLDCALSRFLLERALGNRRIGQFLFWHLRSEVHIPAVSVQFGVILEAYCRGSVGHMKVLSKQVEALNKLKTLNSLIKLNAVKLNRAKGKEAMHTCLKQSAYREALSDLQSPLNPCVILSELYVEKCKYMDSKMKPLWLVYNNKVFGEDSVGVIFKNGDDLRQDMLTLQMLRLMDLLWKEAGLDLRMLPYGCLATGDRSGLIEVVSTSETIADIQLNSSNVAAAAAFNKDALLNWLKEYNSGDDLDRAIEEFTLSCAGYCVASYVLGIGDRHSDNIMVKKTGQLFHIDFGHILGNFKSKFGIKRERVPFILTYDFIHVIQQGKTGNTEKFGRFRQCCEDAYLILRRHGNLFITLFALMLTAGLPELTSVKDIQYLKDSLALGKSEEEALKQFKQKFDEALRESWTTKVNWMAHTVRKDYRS
T1 sequence (P27986 whole entry partner): as the sequence (P27986 whole entry partner) above

| IC50 (PI3 Kbeta (PI3 Kb)) [nM] | IC50 [1] [nM] | PI3Ka (PI3Kalpha (PI3Ka)) | IC50 (PI3Kalpha (PI3Ka)) [nM] | Structure (SMILES) |
| --- | --- | --- | --- | --- |
| > 10000 | 58 | D (D >10 μM) | – | COC(=O)N1Cc2nc(-c3ccc(NC(=O)NC4CC4)cc3F)nc(N3CCOC[C@H]3C)c2C1 [Example 180, (R)-methyl 2-(4-(3-cyclopropylureido)-2-fluorophenyl)-4-(3-methylmorpholino)-5H-pyrrolo[3,4-d]pyrimidine-6(7H)-carboxylate] |
| > 10000 | 962 | D (D >10 μM) | – | COC(=O)N1Cc2nc(-c3ccc(NC(=O)NCCO)cc3F)nc(N3CCOC[C@@H]3C)c2C1 [Example 181, (S)-methyl 2-(2-fluoro-4-(3-(2-hydroxyethyl)ureido)phenyl)-4-(3-methylmorpholino)-5H-pyrrolo[3,4-d]pyrimidine-6(7H)-carboxylate] |
| > 10000 | 60 | D (D >10 μM) | – | COC(=O)N1Cc2nc(-c3ccc(NC(=O)NCCF)cc3F)nc(N3CCOC[C@@H]3C)c2C1 [Example 183, (S)-methyl 2-(2-fluoro-4-(3-(2-fluoroethyl)ureido)phenyl)-4-(3-methylmorpholino)-5H-pyrrolo[3,4-d]pyrimidine-6(7H)-carboxylate] |
| > 10000 | 360 | – | 1000 to 10000 | CC(C)N1Cc2nc(-c3ccc(NC(=O)NCCF)cc3F)nc(N3CCOCC3)c2C1 [Example 185, 1-(3-fluoro-4-(6-isopropyl-4-morpholino-6,7-dihyro-5H-pyrrolo[3,4-d]pyrimidin-2-yl)phenyl)-3-(2-fluoroethyl)urea] |
| > 10000 | 197 | D (D >10 μM) | – | CC(C)N1Cc2nc(-c3ccc(NC(=O)NCCF)cc3F)nc(N3CCOC[C@@H]3C)c2C1 [Example 186, (S)-1-(3-fluoro-4-(6-isopropyl-4-(3-methylmorpholino)-6,7-dihydro-5H-pyrrolo[3,4-d]pyrimidin-2-yl)phenyl)-3-(2-fluoroethyl)urea] |
| > 10000 | 563 | D (D >10 μM) | – | CC(C)N1Cc2nc(-c3ccc(NC(=O)NCCO)cc3F)nc(N3CCOC[C@@H]3C)c2C1 [Example 187, (S)-1-(3-fluoro-4-(6-isopropyl-4-(3-methylmorpholino)-6,7-dihydro-5H-pyrrolo[3,4-d]pyrimidin-2-yl)phenyl)-3-(2-hydroxyethyl)urea] |
| > 10000 | 218 | – | 1000 to 10000 | C[C@@H]1COCCN1c1nc(-c2ccc(NC(=O)NC3CC3)cc2F)nc2c1CN(C(=O)C1CC1)C2 [Example 188, (R)-1-(4-(6-(cyclopropanecarbonyl)-4-(3-methylmorpholino)-6,7-dihydro-5H-pyrrolo[3,4-d]pyrimidin-2-yl)-3-fluorophenyl)-3-cyclopropylurea] |
| > 10000 | 133 | D (D >10 μM) | – | CC(C)NC(=O)N1CCc2c(nc(-c3ccc(NC(=O)NC4CC4)cc3F)nc2N2CCOC[C@@H]2C)C1 [Example 189, (S)-2-(4-(3-cyclopropylureido)-2-fluorophenyl)-N-isopropyl-4-(3-methylmorpholino)-5,6-dihydropyrido[3,4-d]pyrimidine-7(8H)-carboxamide] |
| > 10000 | 351 | D (D >10 μM) | – | C[C@@H]1COCCN1c1nc(-c2ccc(NC(=O)NC3CC3)cc2F)nc2c1CN(C=O)C2 [Example 190, (R)-1-cyclopropyl-3-(3-fluoro-4-(6-formyl-4-(3-methylmorpholino)-6,7-dihydro-5H-pyrrolo[3,4-d]pyrimidin-2-yl)phenyl)urea] |
| > 10000 | 180 | D (D >10 μM) | – | C[C@@H]1COCCN1c1nc(-c2ccc(NC(=O)NC3CC3)cc2F)nc2c1CN(S(C)(=O)=O)C2 [Example 191, (R)-1-cyclopropyl-3-(3-fluoro-4-(4-(3-methylmorpholino)-6-(methylsulfonyl)-6,7-dihydro-5H-pyrrolo[3,4-d]pyrimidin-2-yl)phenyl)urea] |

Reference: US8785457B2 (Cellzome Limited, priority 2009, dated 2014)
